US20210007356A1, “IMIDE DERIVATIVE AND FUNGICIDE CONTAINING SAID DERIVATIVE AS ACTIVE INGREDIENT” (HOKKO CHEMICAL INDUSTRY CO., LTD., priority 2018, published 2021)
Like-named read-outs stand apart in the source and are kept apart here.

Experiments:
[1] = test system: barley powdery mildew fungus (Erysiphe graminis); assay: Test Example 2: control effect against barley powdery mildew by foliage application; format: in vivo; conditions: wettable powder diluted to 100 ppm, 10 mL per pot foliage spray on barley; inoculated day after; 7 days after inoculation
[2] = test system: rice sheath blight fungus (Thanatephorus cucumeris); assay: Test Example 10: control effect against rice sheath blight by water surface application (flowable formulation); conditions: flowable 1,000 ppm, 1 mL dripped in paddy water, inoculated after 1 week, 7 days after inoculation
[3] = test system: rice sheath blight fungus (Thanatephorus cucumeris); assay: Test Example 6: control effect against rice sheath blight by box treatment (flowable formulation); conditions: flowable 5,000 ppm, 50 mL irrigation of nursery box, paddy rice; inoculated after 3 weeks; 7 days after inoculation
[4] = test system: rice sheath blight fungus (Thanatephorus cucumeris); assay: Test Example 8: control effect against rice sheath blight by box treatment (granule); conditions: 5 g of granule on nursery box, paddy rice; inoculated after 3 weeks; 7 days after inoculation
[5] = test system: rice blast fungus (Pyricularia grisea); format: in vivo; conditions: flowable 1,000 ppm, 1 mL dripped in paddy water, inoculated after 1 week, 7 days after inoculation
[6] = test system: rice blast fungus (Pyricularia grisea); format: in vivo; conditions: flowable 5,000 ppm, 50 mL irrigation of nursery box, paddy rice; inoculated after 3 weeks; 7 days after inoculation
[7] = test system: rice blast fungus (Pyricularia grisea); format: in vivo; conditions: 5 g of granule on nursery box, paddy rice; inoculated after 3 weeks; 7 days after inoculation
[8] = test system: rice blast fungus (Pyricularia grisea); format: in vivo; conditions: flowable diluted to 100 ppm, 10 mL per pot foliage spray on paddy rice; inoculated day after; 7 days after inoculation

SMILES	evaluation value of control effect (from control value, lesion area percentage) [1]	evaluation value of control effect (from control value, lesion height) [2]	evaluation value of control effect (from control value, lesion height) [3]	evaluation value of control effect (from control value, lesion height) [4]	evaluation value of control effect (from control value, number of lesions) [5]	evaluation value of control effect (from control value, number of lesions) [6]	evaluation value of control effect (from control value, number of lesions) [7]	evaluation value of control effect (from control value, number of lesions) [8]
Cn1cc(C(=O)N(C(=O)c2snc(Cl)c2Cl)c2ccccc2C2CC2C2CC2)c(C(F)F)n1 (stereo not shown) [1-29]	4	5	5	5	5	5	5	4
CC(C)CC(C)c1ccccc1N(C(=O)c1cn(C)nc1C(F)F)C(=O)c1snc(Cl)c1Cl (stereo not shown) [1-35]	5	5	5	5	5	5	5	4
Cc1nnsc1C(=O)N(C(=O)c1cn(C)nc1C(F)F)c1ccccc1C(C)CC(C)C (stereo not shown) [1-146, N-{3-(Difluoromethyl)-1-methylpyrazole-4-carbonyl}-N-{2-(1,3-dimethylbutyl)phenyl}-4-methylthiadiazole-5-carboxamide]	4	5	5	5	5	5	5	4
CC(C)CC(C)c1ccccc1N(C(=O)c1cn(C)nc1C(F)F)C(=O)c1snnc1C(F)F (stereo not shown) [1-237]	5	5	5	5	5	5	5	4
Cc1nc(C(F)F)c(C(=O)N(C(=O)c2cn(C)nc2C(F)F)c2ccccc2CCC(C)C)s1 [1-313]	4	5	5	5	5	5	5	4
Cc1nn(C)c(F)c1C(=O)N(C(=O)c1scnc1C(F)F)c1ccccc1C(C)CC(C)C (stereo not shown) [1-346]	4	–	–	–	5	5	5	4
Cn1cc(C(=O)N(C(=O)c2scnc2C(F)F)c2ccccc2-c2cc(F)c(F)c(F)c2)c(C(F)F)n1 [1-370]	4	5	5	5	5	5	5	4
Cc1nn(C)c(C)c1C(=O)N(C(=O)c1snc(Cl)c1Cl)c1ccccc1C(C)CC(C)C (stereo not shown) [1-377]	4	–	–	–	5	5	5	4
Cc1nn(C)c(Cl)c1C(=O)N(C(=O)c1snc(Cl)c1Cl)c1ccccc1C(C)CC(C)C (stereo not shown) [1-378]	–	–	–	–	5	5	5	4
CC(C)CC(C)c1ccccc1N(C(=O)c1snc(Cl)c1Cl)C(=O)c1c(C(F)F)nn(C)c1Cl (stereo not shown) [1-379]	4	–	–	–	5	5	5	4
Cc1nnsc1C(=O)N(C(=O)c1cn(C)nc1C(F)(F)F)c1ccsc1C(C)CC(C)C (stereo not shown) [5-19]	5	–	–	–	5	5	5	4
CC(C)CC(C)c1ccccc1N(C(=O)c1cc(Cl)c(Cl)s1)C(=O)c1cccnc1C(F)F (stereo not shown) [13-50]	4	–	–	–	5	5	5	4
CC(C)CC(C)c1ccccc1N(C(=O)c1cccnc1CF)C(=O)c1snc(Cl)c1Cl (stereo not shown) [13-56]	4	–	–	–	5	5	5	4
CC(C)CC(C)c1ccccc1N(C(=O)c1cccnc1C(C)F)C(=O)c1snc(Cl)c1Cl (stereo not shown) [13-57]	–	–	–	–	5	5	5	4
CC(C)CC(C)c1ccccc1N(C(=O)c1ccccc1C(F)F)C(=O)c1snc(Cl)c1Cl (stereo not shown) [19-2]	4	–	–	–	5	5	5	4
Cc1nc(C(F)F)c(C(=O)N(C(=O)c2snnc2C)c2cccc3c2C(C)CC3(C)C)s1 (stereo not shown) [26-49]	4	–	–	–	5	5	5	4
CC1OC(C)(C)c2cccc(N(C(=O)c3ccccc3C(F)F)C(=O)c3snc(Cl)c3Cl)c21 (stereo not shown) [28-4]	–	5	5	5	5	5	5	4
